# Laboratory results from the OligoGym collection.
# “And” between values parts separate entries of the source, which are not always exact repeats. Equal entries are not always repeated. After the bases stand the sugars from the 5' end (letter, count) and the backbone: PS all phosphorothioate, else s phosphorothioate and o phosphodiester by linkage. Methylation of C is not given here. k = constrained ethyl (cEt); d = 2'-deoxy (DNA)
# Molecular target: MALAT1
# Details: ASO, A431, 0.005 µM
row,Sequence,target mRNA inhibition
1,"CTACAACACCCGGAAA (sugars k3 d10 k3, PS)",33%
2,"AGACAGACCTAAGGGA (sugars k3 d10 k3, PS)",21%
3,"TCCCTTCAGGATCATT (sugars k3 d10 k3, PS)",10%
4,"ACAACTCGCATCACCG (sugars k3 d10 k3, PS)",-212%
5,"TGCGGCCCCCCAGTTG (sugars k3 d10 k3, PS)",-6%
6,"CCCCCCACGGCCCGCA (sugars k3 d10 k3, PS)",26%
7,"CATATTTTGCCCCCAC (sugars k3 d10 k3, PS)",15%
8,"CCCTAACATGCAATAC (sugars k3 d10 k3, PS)",14%
9,"CATCACCGGAATTCGA (sugars k3 d10 k3, PS)",2%
10,"GGACAGCTAAGATAGC (sugars k3 d10 k3, PS)",22%
11,"TCAATTAATGCTAGTC (sugars k3 d10 k3, PS)",35%
12,"TTTTAAAAGATCGCCT (sugars k3 d10 k3, PS)",33%
13,"ACCTCTTAAAGCACTT (sugars k3 d10 k3, PS)",18%
14,"TGGCAAAATGGCGGAC (sugars k3 d10 k3, PS)",19%
15,"AATCATTGGGAGTTAC (sugars k3 d10 k3, PS)",24%
16,"GCCATCTACTATTTCT (sugars k3 d10 k3, PS)",38%
17,"ACTTGAATGCAAACTA (sugars k3 d10 k3, PS)",11%
18,"ATCCACTTGATCCCAA (sugars k3 d10 k3, PS)",16%
19,"CACAAAACCCCCGGAA (sugars k3 d10 k3, PS)",19%
20,"ATTTTAAAAAGGCTCG (sugars k3 d10 k3, PS)",27%
21,"CCGGAATTCGATCACC (sugars k3 d10 k3, PS)",9%
22,"TAAGAACTCCACAGCT (sugars k3 d10 k3, PS)",41%
23,"CCTTCGGTTTAATCTC (sugars k3 d10 k3, PS)",61% and 58%

row,Sequence,target mRNA inhibition
1,"CCCTCTAAGAGACATT (sugars k3 d10 k3, PS)",32%
2,"TACTTGCCAACTTGGA (sugars k3 d10 k3, PS)",51%
3,"CGCCGCCTCTTAAAGC (sugars k3 d10 k3, PS)",13%
4,"GAGAAAGTGCCATGGT (sugars k3 d10 k3, PS)",26%
5,"CTTAAGAGGGCAGGAG (sugars k3 d10 k3, PS)",-4%
6,"AATCAGGTGAGGCTGA (sugars k3 d10 k3, PS)",-26%
7,"CCTACTGAAGAGCATT (sugars k3 d10 k3, PS)",25%
8,"ATAACTGATCTGACTT (sugars k3 d10 k3, PS)",-5%
9,"CAGTTACTCCAGCATA (sugars k3 d10 k3, PS)",24%
10,"ATTTATTTCGGCTTCT (sugars k3 d10 k3, PS)",71% and 90%
11,"GGTTATAGCTTGACAA (sugars k3 d10 k3, PS)",78% and 95%
12,"AAACAACATATTGCCG (sugars k3 d10 k3, PS)",20%
13,"ACCGTAACAGGCCACT (sugars k3 d10 k3, PS)",20%
14,"GCACGGAAATTTTTCT (sugars k3 d10 k3, PS)",-3%
15,"AGCTTGGCCAAGTCTG (sugars k3 d10 k3, PS)",28%
16,"TCCCTGTTAAGACCAT (sugars k3 d10 k3, PS)",27%
17,"GTCTACAAGTTACATG (sugars k3 d10 k3, PS)",13%
18,"TTAAAGTGTGATAGTT (sugars k3 d10 k3, PS)",6%
19,"AATCCCTTCAGGATCA (sugars k3 d10 k3, PS)",8%
20,"TTACTTGCCAACTTGG (sugars k3 d10 k3, PS)",70% and 68%
21,"CGTTAAAAACTTAACG (sugars k3 d10 k3, PS)",13%
22,"ATTCTAGACAGACCTA (sugars k3 d10 k3, PS)",33%
23,"GACCAAACTGCAGAGT (sugars k3 d10 k3, PS)",3%

row,Sequence,target mRNA inhibition
1,"GCACTGATCACTTTAG (sugars k3 d10 k3, PS)",63% and 47% and 50%
2,"CGAGAAATCGGAGCAG (sugars k3 d10 k3, PS)",22%
3,"GTAAAAACAGGTCATC (sugars k3 d10 k3, PS)",21%
4,"GCTGAAATTGTCTCAA (sugars k3 d10 k3, PS)",45%
5,"AACTTGCCATCTACTA (sugars k3 d10 k3, PS)",-18%
6,"TAACTTCCCCCAGCTT (sugars k3 d10 k3, PS)",20%
7,"GGATTAATGTAGTGTA (sugars k3 d10 k3, PS)",86% and 96%
8,"ATCCCAACCGTAACAG (sugars k3 d10 k3, PS)",13%
9,"ACCCCAACTAAACATA (sugars k3 d10 k3, PS)",26%
10,"AGCAGCACGGGCTGTC (sugars k3 d10 k3, PS)",10%
11,"AGTCCAATGCAAAAAC (sugars k3 d10 k3, PS)",23%
12,"GCTAAGCAATATCTTA (sugars k3 d10 k3, PS)",32%
13,"CCCTTCAAGCACCGCT (sugars k3 d10 k3, PS)",28%
14,"GCTCGCTTGCTCCTCA (sugars k3 d10 k3, PS)",39%
15,"GCTCGCCTCCTCCGTG (sugars k3 d10 k3, PS)",27%
16,"GAGTGAAGTGTACTAT (sugars k3 d10 k3, PS)",62% and 77%
17,"CCTTCGGATGCTTCAC (sugars k3 d10 k3, PS)",58% and 78%
18,"GCGGTTTCCTCAAGCT (sugars k3 d10 k3, PS)",20%
19,"CAATTTACATCACAAC (sugars k3 d10 k3, PS)",45%
20,"AGAAGTCTCGGGCTGC (sugars k3 d10 k3, PS)",8%
21,"TTTACACCTCAGTACG (sugars k3 d10 k3, PS)",35%
22,"AGCACGGGCTGTCTGC (sugars k3 d10 k3, PS)",7%
23,"CTAAGAGACATTCAAG (sugars k3 d10 k3, PS)",27%

row,Sequence,target mRNA inhibition
1,"ACAATCACTACTCCAA (sugars k3 d10 k3, PS)",31%
2,"AGACAGATTAGTAGTC (sugars k3 d10 k3, PS)",-8%
3,"ATACTGAAAACTCCCC (sugars k3 d10 k3, PS)",14%
4,"ACCTTGGGCAGCCAGT (sugars k3 d10 k3, PS)",-4%
5,"TCTAGGATCCTCTACG (sugars k3 d10 k3, PS)",-24%
6,"TCTAGGCCATCATACT (sugars k3 d10 k3, PS)",40%
7,"AGATTCACTGAATCCA (sugars k3 d10 k3, PS)",6%
8,"CCCTTCTAGCTTCAAG (sugars k3 d10 k3, PS)",38%
9,"TCTTAGTAACCTATTG (sugars k3 d10 k3, PS)",19%
10,"GCCGTTGGCTGCCAGT (sugars k3 d10 k3, PS)",-8%
11,"TCCTGAAAGTGCTCAC (sugars k3 d10 k3, PS)",-7%
12,"GCAATTCAAAATCCTG (sugars k3 d10 k3, PS)",51%
13,"GCTGCAAACTTTAGAC (sugars k3 d10 k3, PS)",-9%
14,"CCCACGGCCCGCACGG (sugars k3 d10 k3, PS)",14%
15,"AACCCCCGGAACTTTT (sugars k3 d10 k3, PS)",1%
16,"AGATACCTGTCTGAGG (sugars k3 d10 k3, PS)",12%
17,"CACGGGCTGTCTGCTT (sugars k3 d10 k3, PS)",18%
18,"TACAGAAAGAGTCCTG (sugars k3 d10 k3, PS)",17%
19,"CAACTAAGCGAATGGC (sugars k3 d10 k3, PS)",24%
20,"TAGGGAAAAGTGGTTG (sugars k3 d10 k3, PS)",-13%
21,"TGCAGTCCTGCGACTT (sugars k3 d10 k3, PS)",15%
22,"GCCTGCTACCTTCATC (sugars k3 d10 k3, PS)",36%
23,"TGGAAACCAGGAGTGC (sugars k3 d10 k3, PS)",14%

row,Sequence,target mRNA inhibition
1,"AAAATGGCGGACTTTC (sugars k3 d10 k3, PS)",30%
2,"AGAAATCGGAGCAGCA (sugars k3 d10 k3, PS)",9%
3,"TACCTAAACCCACCCC (sugars k3 d10 k3, PS)",6%
4,"CTAAAAGCATTGCCCT (sugars k3 d10 k3, PS)",35%
5,"GTCTTAGCAGAGAATT (sugars k3 d10 k3, PS)",47%
6,"TATAATAGAGCTACTT (sugars k3 d10 k3, PS)",15%
7,"TCTGAGTGAAGTGTAC (sugars k3 d10 k3, PS)",34%
8,"TACTGCATTTACTTGC (sugars k3 d10 k3, PS)",20%
9,"TACGCAACTGAGCCCC (sugars k3 d10 k3, PS)",0%
10,"ATCCACTTCTGTGTAG (sugars k3 d10 k3, PS)",38%
11,"CCGCTTGAGATTTGGG (sugars k3 d10 k3, PS)",28%
12,"CTCCCCCCCGCCTCAG (sugars k3 d10 k3, PS)",12%
13,"AGTAGTTGTATTAATC (sugars k3 d10 k3, PS)",64% and 41%
14,"CATCCAAACTCTACAT (sugars k3 d10 k3, PS)",23%
15,"CAAAATGGCGGACTTT (sugars k3 d10 k3, PS)",17%
16,"GATGTGATTTTTAACC (sugars k3 d10 k3, PS)",52% and 56%
17,"AGATAGCAGCACAACT (sugars k3 d10 k3, PS)",-5%
18,"AGCTATTAAAATTACG (sugars k3 d10 k3, PS)",22%
19,"TCATAATCTCCCACCT (sugars k3 d10 k3, PS)",10%
20,"ACCTTCTGAACCGGAG (sugars k3 d10 k3, PS)",22%
21,"GGCAAATTAATGGCCT (sugars k3 d10 k3, PS)",25%
22,"GGTGAATTCAACTGGA (sugars k3 d10 k3, PS)",49%
